# Earlier results in paper PMC6843445, “Pharmacokinetic Properties of Fluorescently Labelled Hydroxypropyl-Beta-Cyclodextrin” (Biomolecules, 2019).
# Where two headings read alike, the source gives them in different places.
# Assays:
# [1] = set-up: method as in PMID 30521943; conditions: after 30 min; ref [21]; cited from earlier work
# [2] = set-up: method as in ref [4],[27] = [4]; PMID 16018907; doi:10.1016/j.fct.2005.03.007; 4. Gould S. Scott R.C. 2-Hydroxypropyl-beta-cyclodextrin (HP-b-CD): A toxicology review Food Chem. Toxicol. 2005 43 1451 1459 10.1016/j.fct.2005.03.007 16018907 || [27]; 27. Committee for Human Medicinal Products (CHMP), European Medicines Agency Cyclodextrins Used as Excipients. EMA/CHMP/333892/2013 9 10 2017 Available online: http://www.ema.europa.eu/docs/en_GB/docu; conditions: rats; ref [4],[27]; cited from earlier work
# [3] = tested on: Caco-2 cells; set-up: method as in PMID 27317368, PMID 20434542; conditions: HPBCD with different DS; ref [6],[7]; cited from earlier work
# [4] = set-up: method as in PMID 27317368, PMID 20434542; conditions: HPBCD with different DS; ref [6],[7]; cited from earlier work
# [5] = set-up: method as in PMID 22552390; conditions: rats, subcutaneous long-term, daily dose of 200 mg/kg; ref [8]; cited from earlier work
# [6] = set-up: method as in PMID 23611577; conditions: pigs, 2 week 0.25–0.5 g/kg/infusion; ref [9]; cited from earlier work
# [7] = set-up: method as in ref [4] = [4]; PMID 16018907; doi:10.1016/j.fct.2005.03.007; 4. Gould S. Scott R.C. 2-Hydroxypropyl-beta-cyclodextrin (HP-b-CD): A toxicology review Food Chem. Toxicol. 2005 43 1451 1459 10.1016/j.fct.2005.03.007 16018907; conditions: rats, 4–7 days 225 mg/kg/day i.v.; ref [4]; cited from earlier work
# [8] = set-up: method as in PMID 28803710; conditions: patients with NPC1, lumbar intrathecal; ref [2]; cited from earlier work
# [9] = set-up: method as in ref [4] = [4]; PMID 16018907; doi:10.1016/j.fct.2005.03.007; 4. Gould S. Scott R.C. 2-Hydroxypropyl-beta-cyclodextrin (HP-b-CD): A toxicology review Food Chem. Toxicol. 2005 43 1451 1459 10.1016/j.fct.2005.03.007 16018907; conditions: rats; ref [4]; cited from earlier work
# [10] = set-up: method as in ref [4] = [4]; PMID 16018907; doi:10.1016/j.fct.2005.03.007; 4. Gould S. Scott R.C. 2-Hydroxypropyl-beta-cyclodextrin (HP-b-CD): A toxicology review Food Chem. Toxicol. 2005 43 1451 1459 10.1016/j.fct.2005.03.007 16018907; conditions: dogs; ref [4]; cited from earlier work
Molecule,activity in the lung compared to other organs [1],no observed adverse effect levels (NOAELs) [2],cytotoxicity on Caco-2 cells [3],hemolytic activity [4],bone effect [5],lung findings [6],lung findings [7],disease progression [8],organs with the highest HPBCD concentrations [9],organs with the highest HPBCD concentrations [10]
^68Ga-labeled NODAGA-hydroxypropyl-beta-cyclodextrin [^68Ga-NODAGA-HPBCD],relatively higher,,,,,,,,,
"CC(O)COC[C@H]1O[C@@H]2O[C@H]3[C@H](O)[C@@H](O)[C@@H](O[C@H]4[C@H](O)[C@@H](O)[C@@H](O[C@H]5[C@H](O)[C@@H](O)[C@@H](O[C@H]6[C@H](O)[C@@H](O)[C@@H](O[C@H]7[C@H](O)[C@@H](O)[C@@H](O[C@H]8[C@H](O)[C@@H](O)[C@@H](O[C@H]1[C@H](O)[C@H]2O)O[C@@H]8COCC(C)O)O[C@@H]7COCC(C)O)O[C@@H]6COCC(C)O)O[C@@H]5COCC(C)O)O[C@@H]4COCC(C)O)O[C@@H]3COCC(C)O (stereo partly drawn) [HPBCD, 2-Hydroxypropyl-beta-cyclodextrin]",,50 mg/kg/day,no toxicity,low hemolytic activity,caused bone loss,inflammatory changes in the lung,foamy macrophage infiltration of the lung,slowed disease progression,kidneys and lung,kidneys and liver
